# How the values were obtained:
# [1] = Cytotoxicity against human colon cancer cells assessed as cellular growth at 10 uM after 48 hrs by SRB assay relative to control; assay type: functional, Cancer cell lines
# [2] = Cytotoxicity against human melanoma cells assessed as cellular growth at 10 uM after 48 hrs by SRB assay relative to control; assay type: functional, Melanoma cell
# [3] = Cytotoxicity against human leukemia cells assessed as cellular growth at 10 uM after 48 hrs by SRB assay relative to control; assay type: functional, Leukemia cell
# SR = test: Cytotoxicity against human SR cells assessed as cellular growth at 0.01 uM after 48 hrs by SRB assay relative to control; assay type: functional
# K562 = test: Cytotoxicity against human K562 cells after 48 hrs by SRB assay; assay type: functional; settings: K562, 48 h
# A549 = test: Cytotoxicity against human A549 cells after 48 hrs by SRB assay; assay type: functional; settings: A549, 48 h
# HCT-15 = test: Cytotoxicity against human HCT15 cells assessed as cellular growth at 100 uM after 48 hrs by SRB assay relative to control; assay type: functional
# NCI-H226 [4] = test: Cytotoxicity against human NCI-H226 cells assessed as cellular growth at 0.01 uM after 48 hrs by SRB assay relative to control; assay type: functional
# SF-295 = test: Cytotoxicity against human SF295 cells assessed as cellular growth at 0.1 uM after 48 hrs by SRB assay relative to control; assay type: functional
# NCI-H226 [5] = test: Cytotoxicity against human NCI-H226 cells assessed as cellular growth at 100 uM after 48 hrs by SRB assay relative to control; assay type: functional
# NCI-H460 = test: Cytotoxicity against human NCI-H460 cells assessed as cellular growth at 100 uM after 48 hrs by SRB assay relative to control; assay type: functional
# SK-MEL-28 = test: Cytotoxicity against human SK-MEL-28 cells assessed as cellular growth at 10 uM after 48 hrs by SRB assay relative to control; assay type: functional
# UACC-257 = test: Cytotoxicity against human UACC257 cells assessed as cellular growth at 1 uM after 48 hrs by SRB assay relative to control; assay type: functional
# NCI-H23 = test: Cytotoxicity against human NCI-H23 cells assessed as cellular growth at 1 uM after 48 hrs by SRB assay relative to control; assay type: functional
# OVCAR-5 [6] = test: Cytotoxicity against human OVCAR5 cells assessed as cellular growth at 0.01 uM after 48 hrs by SRB assay relative to control; assay type: functional
# OVCAR-5 [7] = test: Cytotoxicity against human OVCAR5 cells assessed as cellular growth at 0.1 uM after 48 hrs by SRB assay relative to control; assay type: functional
# Hs-578T = test: Cytotoxicity against human Hs578T cells assessed as cellular growth at 100 uM after 48 hrs by SRB assay relative to control; assay type: functional
# Mus musculus = test: Toxicity in mouse at 100 to 400 mg/kg measured for 2 weeks; assay type: organism-based; set-up: dose 100-400 mg/kg; settings: in vivo, 336 h
# IGROV-1 = test: Cytotoxicity against human IGROV1 cells assessed as cellular growth at 100 uM after 48 hrs by SRB assay relative to control; assay type: functional
# OVCAR-5 [8] = test: Cytotoxicity against human OVCAR5 cells assessed as cellular growth at 100 uM after 48 hrs by SRB assay relative to control; assay type: functional
# OVCAR-8 = test: Cytotoxicity against human OVCAR8 cells assessed as cellular growth at 1 uM after 48 hrs by SRB assay relative to control; assay type: functional
# 786-0 = test: Cytotoxicity against human 786-0 cells assessed as cellular growth at 1 uM after 48 hrs by SRB assay relative to control; assay type: functional
# SNB-19 = test: Cytotoxicity against human SNB19 cells assessed as cellular growth at 0.01 uM after 48 hrs by SRB assay relative to control; assay type: functional
# A498 = test: Cytotoxicity against human A498 cells after 48 hrs by SRB assay; assay type: functional; settings: A498, 48 h
# PC-3 = test: Cytotoxicity against human PC3 cells after 48 hrs by SRB assay; assay type: functional; settings: PC-3, 48 h
# TK-10 = test: Cytotoxicity against human TK10 cells assessed as cellular growth at 0.1 uM after 48 hrs by SRB assay relative to control; assay type: functional
# HOP-62 = test: Cytotoxicity against human HOP62 cells assessed as cellular growth at 0.1 uM after 48 hrs by SRB assay relative to control; assay type: functional
# ACHN = test: Cytotoxicity against human ACHN cells assessed as cellular growth at 1 uM after 48 hrs by SRB assay relative to control; assay type: functional
# U-251 = test: Cytotoxicity against human U251 cells assessed as cellular growth at 1 uM after 48 hrs by SRB assay relative to control; assay type: functional
# HL-60(TB) = test: Cytotoxicity against human HL-60(TB) cells assessed as cellular growth at 0.01 uM after 48 hrs by SRB assay relative to control; assay type: functional
# UACC-62 = test: Cytotoxicity against human UACC62 cells assessed as cellular growth at 0.1 uM after 48 hrs by SRB assay relative to control; assay type: functional
# M14 = test: Cytotoxicity against human M14 cells assessed as cellular growth at 100 uM after 48 hrs by SRB assay relative to control; assay type: functional
# LOX IMVI = test: Cytotoxicity against human LOXIMVI cells assessed as cellular growth at 100 uM after 48 hrs by SRB assay relative to control; assay type: functional
# MOLT-4 [9] = test: Cytotoxicity against human MOLT4 cells assessed as cellular growth at 1 uM after 48 hrs by SRB assay relative to control; assay type: functional
# HCC 2998 = test: Cytotoxicity against human HCC2998 cells after 48 hrs by SRB assay; assay type: functional; settings: HCC 2998, 48 h
# CAKI-1 = test: Cytotoxicity against human Caki1 cells after 48 hrs by SRB assay; assay type: functional; settings: CAKI-1, 48 h
# MOLT-4 [10] = test: Cytotoxicity against human MOLT4 cells assessed as cellular growth at 100 uM after 48 hrs by SRB assay relative to control; assay type: functional
# RPMI-8226 = test: Cytotoxicity against human RPMI8226 cells assessed as cellular growth at 100 uM after 48 hrs by SRB assay relative to control; assay type: functional
# [11] = read-out: LC50 (the source's name)
# [12] = read-out: pLC50 (the source's name) (converted)
structure (smiles),measurement,setting,value
O=C(O)CCCn1c2c(sc3ccccc32)c(=O)n2nnc(-c3ccccc3)c12,Activity,[1],90%
same,Activity,[2],95%
same,Activity,[3],102%
O=C(CCCn1c2c(sc3ccccc32)c(=O)n2nnc(-c3ccccc3)c12)NCCc1c[nH]cn1,Activity,SR,108%
same,GI50,K562; read-out: GI50,0.0227 µM
same,CC50,K562; [11],5.18 µM
same,TGI,K562; read-out: TGI,1.02 µM
same,GI50,K562; read-out: pGI50 (converted),0.0229 µM
same,CC50,K562; [12],5.13 µM
same,TGI,K562; read-out: pTGI (converted),1.02 µM
same,GI50,A549; read-out: GI50,1.29 µM
same,TGI,A549; read-out: TGI,3.21 µM
same,GI50,A549; read-out: pGI50 (converted),1.29 µM
same,TGI,A549; read-out: pTGI (converted),3.24 µM
same,Activity,HCT-15,-100%
same,Activity,NCI-H226 [4],97%
same,Activity,SF-295,70%
same,Activity,NCI-H226 [5],-72%
same,Activity,NCI-H460,-15%
same,Activity,SK-MEL-28,-92%
same,Activity,UACC-257,109%
same,Activity,NCI-H23,65%
same,Activity,OVCAR-5 [6],94%
same,Activity,OVCAR-5 [7],36%
same,Activity,Hs-578T,-49%
same,Activity,Mus musculus,Non-toxic
same,Activity,IGROV-1,-63%
same,Activity,OVCAR-5 [8],-80%
same,Activity,OVCAR-8,32%
same,Activity,786-0,53%
same,Activity,SNB-19,94%
same,GI50,A498; read-out: GI50,1.09 µM
same,CC50,A498; [11],5.61 µM
same,TGI,A498; read-out: TGI,2.47 µM
same,GI50,A498; read-out: pGI50 (converted),1.1 µM
same,CC50,A498; [12],5.62 µM
same,TGI,A498; read-out: pTGI (converted),2.45 µM
same,GI50,PC-3; read-out: GI50,0.0603 µM
same,LC50,PC-3; read-out: LC50,7.32 µM
same,TGI,PC-3; read-out: TGI,2.21 µM
same,GI50,PC-3; read-out: pGI50 (converted),0.0603 µM
same,LC50,PC-3; read-out: pLC50 (converted),7.24 µM
same,TGI,PC-3; read-out: pTGI (converted),2.19 µM
same,Activity,TK-10,93%
same,Activity,HOP-62,80%
same,Activity,ACHN,83%
same,Activity,U-251,36%
same,Activity,HL-60(TB),93%
same,Activity,UACC-62,96%
same,Activity,M14,-38%
same,Activity,LOX IMVI,-100%
CN1CCN(CCCn2c3c(sc4ncccc43)c(=O)n3nnc(-c4ccccc4)c23)CC1,Activity,MOLT-4 [9],92%
same,Activity,SR,100%
same,GI50,K562; read-out: GI50,1.91 µM
same,CC50,K562; [11],> 100 µM
same,TGI,K562; read-out: TGI,4.74 µM
same,GI50,K562; read-out: pGI50 (converted),1.91 µM
same,CC50,K562; [12],> 100 µM
same,TGI,K562; read-out: pTGI (converted),4.79 µM
same,GI50,A549; read-out: GI50,1.79 µM
same,TGI,A549; read-out: TGI,3.4 µM
same,GI50,A549; read-out: pGI50 (converted),1.78 µM
same,TGI,A549; read-out: pTGI (converted),3.39 µM
same,Activity,HCT-15,-69%
same,Activity,NCI-H226 [4],95%
same,Activity,SF-295,94%
same,Activity,NCI-H226 [5],-79%
same,Activity,NCI-H460,-72%
same,GI50,HCC 2998; read-out: GI50,1.88 µM
same,CC50,HCC 2998; [11],6.39 µM
same,TGI,HCC 2998; read-out: TGI,3.47 µM
same,GI50,HCC 2998; read-out: pGI50 (converted),1.86 µM
same,CC50,HCC 2998; [12],6.46 µM
same,TGI,HCC 2998; read-out: pTGI (converted),3.47 µM
same,Activity,SK-MEL-28,87%
same,Activity,UACC-257,97%
same,Activity,NCI-H23,94%
same,Activity,OVCAR-5 [6],105%
same,Activity,OVCAR-5 [7],102%
same,GI50,CAKI-1; read-out: GI50,1.63 µM
same,CC50,CAKI-1; [11],6.65 µM
same,TGI,CAKI-1; read-out: TGI,3.29 µM
same,GI50,CAKI-1; read-out: pGI50 (converted),1.62 µM
same,CC50,CAKI-1; [12],6.61 µM
same,TGI,CAKI-1; read-out: pTGI (converted),3.31 µM
same,Activity,Hs-578T,-43%
same,Activity,IGROV-1,-75%
same,Activity,OVCAR-5 [8],-44%
same,Activity,OVCAR-8,89%
same,Activity,786-0,100%
same,Activity,SNB-19,101%
same,GI50,A498; read-out: GI50,11.2 µM
same,CC50,A498; [11],52.3 µM
same,TGI,A498; read-out: TGI,24.2 µM
same,GI50,A498; read-out: pGI50 (converted),11.2 µM
same,CC50,A498; [12],52.5 µM
same,TGI,A498; read-out: pTGI (converted),24 µM
same,Activity,MOLT-4 [10],-56%
same,Activity,TK-10,99%
same,Activity,HOP-62,84%
same,Activity,ACHN,84%
same,Activity,U-251,98%
same,Activity,HL-60(TB),98%
same,Activity,UACC-62,79%
same,Activity,RPMI-8226,-46%
same,Activity,M14,-67%
same,Activity,LOX IMVI,-46%
